Laboratory results: BigSolDB 2.1

CNC(=O)c1cc(Oc2ccc(NC(=O)Nc3ccc(Cl)c(C(F)(F)F)c3)cc2)ccn1
solubility (mole fraction)
Conditions	273.15 K	278.15 K	283.15 K	288.15 K	293.15 K	298.15 K	303.15 K	308.15 K	313.15 K
in 2-butanone	0.00666	0.00725	0.0079	0.00856	0.00929	0.0101	0.0111	0.0122	0.0133
in acetone	0.00227	0.00259	0.00293	0.00329	0.00369	0.00405	0.00448	0.00488	0.00558
in acetonitrile	0.000162	0.000194	0.000239	0.000282	0.000334	0.000396	0.000476	0.000571	0.000678
in cyclohexanone	0.0114	0.0124	0.0138	0.0153	0.0169	0.0189	0.0209	0.0229	0.0251
in ethanol	0.000645	0.000727	0.000817	0.000922	0.00103	0.00114	0.00127	0.0014	0.00155
in ethyl acetate	0.000835	0.001	0.00119	0.00142	0.00165	0.00192	0.00222	0.00255	0.00293
in isobutanol	0.000433	0.000498	0.00058	0.000661	0.000755	0.000854	0.000972	0.0011	0.00126
in isopropanol	0.000498	0.000573	0.000665	0.000761	0.000866	0.000975	0.0011	0.00123	0.00138
in methanol	0.000385	0.000422	0.000459	0.000509	0.000564	0.000628	0.000701	0.000769	0.000848
in n-butanol	0.000726	0.000817	0.000919	0.00103	0.00116	0.0013	0.00145	0.00162	0.00182
in n-propanol	0.000756	0.00086	0.000978	0.00111	0.00126	0.00143	0.00162	0.00183	0.00207
in toluene	0.00197	0.00218	0.00234	0.00255	0.00282	0.00313	0.00352	0.00382	0.00428
